For assay [1], the species on record is Homo sapiens. The assay is described as follows: In vitro inhibition of human platelet aggregation induced by thromboxane mimetic U-46,619 at 0.3 uM. It counts as functional, organism-based.
Assay [2] is filed under the species Homo sapiens. In words: In vitro inhibition of human platelet aggregation induced by collagen (at a concentration of 3 ug/mL); IA means Inactive at 50 uM. Type of assay: functional.
For assay [3], the target named is T1, Proteinase-activated receptor 1 (Homo sapiens, UniProt P25116).
T1 sequence (P25116 whole entry): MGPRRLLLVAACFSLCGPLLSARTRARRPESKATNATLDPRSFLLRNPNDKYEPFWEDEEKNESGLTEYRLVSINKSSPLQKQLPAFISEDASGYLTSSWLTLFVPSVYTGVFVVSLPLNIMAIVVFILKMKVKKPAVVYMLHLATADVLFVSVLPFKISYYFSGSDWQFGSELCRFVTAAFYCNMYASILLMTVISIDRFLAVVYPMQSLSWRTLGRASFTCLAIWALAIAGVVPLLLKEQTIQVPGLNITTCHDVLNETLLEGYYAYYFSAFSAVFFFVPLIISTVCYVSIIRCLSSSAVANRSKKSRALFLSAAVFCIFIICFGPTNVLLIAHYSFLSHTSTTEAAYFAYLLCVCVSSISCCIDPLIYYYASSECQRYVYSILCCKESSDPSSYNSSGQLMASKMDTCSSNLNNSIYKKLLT
The assay is described as follows: In vitro displacement of [3H]S-(p-F-Phe)-homoarginine-K Y-NH2 (at a concentration of 10 nM) from thrombin receptor (PAR-1) on the membranes of CHRF-288-11 cells. For orientation: Loss of bound radioactivity is the signal in a displacement assay; it reports binding, not function.

The species entered for assay [4] is Homo sapiens. The assay is described as follows: In vitro inhibition of human platelet aggregation induced by 3 ug/ml collagen. Type of assay: functional.
For assay [5], the species on record is Homo sapiens. In words: In vitro inhibition of human platelet aggregation induced by thromboxane mimetic U-46,619 (at a concentration of 0.3 uM). It counts as functional.
The species named for assay [6] is Homo sapiens. In words: In vitro inhibition of human platelet aggregation induced by collagen (at a concentration of 3 ug/mL); In active at 50 uM concentration. It counts as functional.
Assay [7] is filed under the species Homo sapiens. In words: In vitro inhibition of human platelet aggregation induced by thromboxane mimetic U-46,619 (at a concentration of 0.3 uM concentration. Type of assay: functional.
Assay [8] is filed under the species Homo sapiens. In words: In vitro inhibition of human platelet aggregation induced by SFLLRN-NH2 (at a concentration of 2 uM); IA means Inactive at 50 uM. Type of assay: functional.

For `NC(=O)NCCCC(NC(=O)[C@H](Cc1ccc(F)c(F)c1)NC(=O)Nc1ccc2c(CN3CCCC3)cn(Cc3c(Cl)cccc3Cl)c2c1)C(=O)NCc1ccccc1` (some centres undefined), the results for the IC50 entry in assay [1], in assay [2] and in assay [3] were “Not Active”, “Not Active” and 0.24 µM, respectively.

Regarding `COc1ccc(C[C@H](NC(=O)Nc2ccc3c(CN4CCCCC4)cn(Cc4ccc(F)cc4)c3c2)C(=O)N[C@@H](CCCN=C(N)N)C(=O)NCC2CCCCC2)cc1`, the IC50 stood at 26.1 µM in assay [4] and 26.2 µM in assay [5].

With `COc1ccc(C[C@H](NC(=O)Nc2ccc3c(CN4CCCC4)cn(Cc4ccccc4C)c3c2)C(=O)N[C@@H](CCCN=C(N)N)C(=O)NCCCc2ccccc2)cc1`, the IC50 in assay [4] was found to be 11.9 µM; in assay [5], 44.2 µM; in assay [3], 1 µM.

With `COc1ccc(C[C@H](NC(=O)Nc2ccc3c(CN4CCCC4)cn(Cc4ccc(F)cc4)c3c2)C(=O)N[C@@H](CCCN=C(N)N)C(=O)NCc2ccccc2)cc1`, the IC50 result in assay [1] is “Not Active”; in assay [2] it was “Not Active”; in assay [3], 2.2 µM.

Regarding `NCCC(NC(=O)[C@H](Cc1ccc(F)c(F)c1)NC(=O)Nc1ccc2c(CN3CCCC3)cn(Cc3c(Cl)cccc3Cl)c2c1)C(=O)NCc1ccccc1` (some centres undefined), the IC50 entry in assay [6] is “Not Active”; in assay [7], “Not Active”; in assay [3] it was 0.44 µM.

Take `CCN(CC)Cc1cn(Cc2cccc(C)c2)c2cc(NC(=O)N[C@@H](Cc3ccc(OC)cc3)C(=O)N[C@@H](CCCN=C(N)N)C(=O)NCCCc3ccccc3)ccc12`: the values for the IC50 in assay [4], in assay [1] and in assay [3] were 10.2 µM, “Not Active” and 2.6 µM, respectively.

For the compound `COc1ccc(C[C@H](NC(=O)Nc2ccc3c(CN4CCCC4)cn(Cc4ccccc4Cl)c3c2)C(=O)N[C@@H](CCCN=C(N)N)C(=O)NCCCc2ccccc2)cc1`, the IC50 in assay [4] was 12 µM; in assay [5], 44.4 µM; in assay [3], 0.38 µM.

Consider `COc1ccc(C[C@H](NC(=O)Nc2ccc3c(CN4CCCC4)cn(Cc4c(Cl)cccc4Cl)c3c2)C(=O)N[C@@H](CCCNC(=N)N)C(=O)NCc2ccccc2)cc1` [RWJ-54003], for which the values for the IC50 in assay [4], in assay [1] and in assay [3] were 46.3 µM, “Not Active” and 1.3 µM, respectively.

Regarding `COc1ccc(C[C@H](NC(=O)Nc2ccc3c(CN4CCCC4)cn(Cc4ccc(F)cc4)c3c2)C(=O)N[C@@H](CCCN=C(N)N)C(=O)NCCCc2ccccc2)cc1`, the values for the half-maximal inhibitory concentration (IC50) in assay [4] and in assay [5] were 16.1 µM and 21.4 µM, respectively.

Take `NCC(NC(=O)[C@H](Cc1ccc(F)c(F)c1)NC(=O)Nc1ccc2c(CN3CCCC3)cn(Cc3c(Cl)cccc3Cl)c2c1)C(=O)NCc1ccccc1` (some centres undefined): the IC50 is 36.9 µM in assay [4], “Not Active” in assay [1] and 0.92 µM in assay [3].

On to `CSCCC(NC(=O)[C@H](Cc1ccc(F)c(F)c1)NC(=O)Nc1ccc2c(CN3CCCC3)cn(Cc3c(Cl)cccc3Cl)c2c1)C(=O)NCc1ccccc1` (some centres undefined), for which the results for the IC50 result in assay [1], in assay [2] and in assay [3] were “Not Active”, “Not Active” and 11.2 µM, respectively.

As for `NCCC[C@H](NC(=O)[C@H](Cc1ccc(F)c(F)c1)NC(=O)Nc1ccc2c(CN3CCCC3)cn(Cc3c(Cl)cccc3Cl)c2c1)C(=O)NCc1ccccc1`, the values for the IC50 in assay [4], in assay [1] and in assay [3] were 15.7 µM, “Not Active” and 0.5 µM, respectively.

`COc1ccc(C[C@H](NC(=O)Nc2ccc3c(CN4CCCC4)cn(Cc4ccc(F)cc4)c3c2)C(=O)N[C@@H](CCCN=C(N)N)C(=O)NCC2CCCCC2)cc1`: the IC50 came to 37.6 µM in assay [4], 12.5 µM in assay [5] and 2.6 µM in assay [3].

As for `O=C(Nc1ccc2c(CN3CCCC3)cn(Cc3c(Cl)cccc3Cl)c2c1)N[C@@H](Cc1ccc(F)c(F)c1)C(=O)NC(Cc1c[nH]cn1)C(=O)NCc1ccccc1` (some centres undefined), the IC50 is 34 µM in assay [4], “Not Active” in assay [1] and 1.3 µM in assay [3].

As to `N=C(N)NCCC[C@H](NC(=O)[C@H](Cc1ccc(F)c(F)c1)NC(=O)Nc1ccc2c(CN3CCCC3)cn(Cc3c(Cl)cccc3Cl)c2c1)C(=O)NCc1ccccc1`, the IC50 entry in assay [1] was “Not Active”; in assay [2] it was “Not Active”; in assay [3], 0.82 µM.

Regarding `Cc1ccccc1Cn1cc(CN2CCCC2)c2ccc(NC(=O)N[C@@H](Cc3ccc([N+](=O)[O-])cc3)C(=O)N[C@@H](CCCN=C(N)N)C(=O)NCc3ccccc3)cc21`, the IC50 was 20.6 µM in assay [4], “Not Active” in assay [1] and 0.8 µM in assay [3].

In the case of `N=C(N)NCCC[C@H](NC(=O)[C@H](Cc1ccc([N+](=O)[O-])cc1)NC(=O)Nc1ccc2c(CN3CCCC3)cn(Cc3ccc(F)cc3)c2c1)C(=O)NCc1ccccc1`, the half-maximal inhibitory concentration (IC50) in assay [4] is 16.5 µM; in assay [1], “Not Active”; in assay [3], 1.1 µM.

Take `CCN(CC)Cc1cn(Cc2ccccc2C)c2cc(NC(=O)N[C@@H](Cc3ccc(OC)cc3)C(=O)N[C@@H](CCCN=C(N)N)C(=O)NCCCc3ccccc3)ccc12`: the IC50 in assay [4] was 17 µM; in assay [1] it was “Not Active”; in assay [3], 2.5 µM.

`COc1ccc(C[C@H](NC(=O)Nc2ccc3c(CN4CCCCC4)cn(Cc4cccc(C)c4)c3c2)C(=O)N[C@@H](CCCNC(=N)N)C(=O)NCC2CCCCC2)cc1`: the concentration for half-maximal inhibition (IC50) in assay [4] was 27.5 µM; in assay [5] it was 36.3 µM; in assay [3], 3.2 µM.

On to `CCN(CC)Cc1cn(Cc2ccc(F)cc2)c2cc(NC(=O)N[C@@H](Cc3ccc(OC)cc3)C(=O)N[C@@H](CCCN=C(N)N)C(=O)NCC3CCCCC3)ccc12`, for which the IC50 in assay [4] was 25.8 µM; in assay [5], 39.5 µM; in assay [3], 3.1 µM.

As to `COc1ccc(C[C@H](NC(=O)Nc2ccc3c(CN4CCCCC4)cn(Cc4ccc(OC(F)(F)F)cc4)c3c2)C(=O)N[C@@H](CCCNC(=N)N)C(=O)NCC2CCCCC2)cc1`, the half-maximal inhibitory concentration (IC50) stood at 33.1 µM in assay [4], 43.5 µM in assay [5] and 5.6 µM in assay [3].

Consider `Cc1ccccc1Cn1cc(CN2CCCC2)c2ccc(NC(=O)N[C@@H](Cc3ccc(C#N)cc3)C(=O)N[C@@H](CCCN=C(N)N)C(=O)NCc3ccccc3)cc21`, for which the figures for the IC50 in assay [4], in assay [1] and in assay [3] were 25.9 µM, “Not Active” and 6.4 µM, respectively.

Regarding `COc1ccc(C[C@H](NC(=O)Nc2ccc3c(CN4CCC4)cn(Cc4ccc(F)cc4)c3c2)C(=O)N[C@@H](CCCN=C(N)N)C(=O)NCc2ccccc2)cc1`, the half-inhibitory concentration (IC50) result in assay [1] and in assay [2] was “Not Active” each time.

In the case of `COC(=O)c1ccc(Cn2cc(CN3CCCC3)c3ccc(NC(=O)N[C@@H](Cc4ccc(OC)cc4)C(=O)N[C@@H](CCCN=C(N)N)C(=O)NCC4CCCCC4)cc32)cc1`, the IC50 result in assay [8] was “Not Active”; in assay [1] it was “Not Active”; in assay [2], “Not Active”; in assay [3], 3.5 µM.

`N#Cc1ccc(C[C@H](NC(=O)Nc2ccc3c(CN4CCCC4)cn(Cc4c(Cl)cccc4Cl)c3c2)C(=O)N[C@@H](CCCNC(=N)N)C(=O)NCc2ccccc2)cc1`: the half-maximal inhibitory concentration (IC50) entry in assay [1] and in assay [2] was “Not Active” throughout.

`COc1ccc(C[C@H](NC(=O)Nc2ccc3c(CN4CCCCC4)cn(Cc4ccccc4C)c3c2)C(=O)N[C@@H](CCCN=C(N)N)C(=O)NCCCc2ccccc2)cc1`: the IC50 in assay [4] was 13 µM; in assay [1], “Not Active”; in assay [3], 0.73 µM.

For the compound `NC(=O)CCC(NC(=O)[C@H](Cc1ccc(F)c(F)c1)NC(=O)Nc1ccc2c(CN3CCCC3)cn(Cc3c(Cl)cccc3Cl)c2c1)C(=O)NCc1ccccc1` (some centres undefined), the concentration for half-maximal inhibition (IC50) result in assay [1] was “Not Active”; in assay [2], “Not Active”; in assay [3], 1.8 µM.

As to `NCCCC[C@H](NC(=O)[C@H](Cc1ccc(F)c(F)c1)NC(=O)Nc1ccc2c(CN3CCCC3)cn(Cc3c(Cl)cccc3Cl)c2c1)C(=O)NCc1ccccc1`, the half-maximal inhibitory concentration (IC50) in assay [4] was determined as 21.3 µM; in assay [5], 41.9 µM; in assay [3], 0.3 µM.

Consider `COc1ccc(C[C@H](NC(=O)Nc2ccc3c(CN4CCCC4)cn(Cc4ccc(OC(F)(F)F)cc4)c3c2)C(=O)N[C@@H](CCCNC(=N)N)C(=O)NCC2CCCCC2)cc1`, for which the IC50 in assay [4] came to 40.4 µM; in assay [5] it was 33 µM; in assay [3], 2.5 µM.

As usually defined, the IC50 is the point on the concentration scale where inhibition reaches its midpoint.

These data come from ChEMBL document CHEMBL1133903, “Thrombin receptor (PAR-1) antagonists. Solid-phase synthesis of indole-based peptide mimetics by anchoring to a secondary amide” (Bioorg Med Chem Lett, 2001).
